Among the data in publication PMC10874388, “Cyclic peptides discriminate BCL-2 and its clinical mutants from BCL-XL by engaging a single-residue discrepancy” (Nature Communications, 2024) are IC50, Thrombocytopenia and Kd values, retold here.

Data set [1] has as its system Jurkat cells. As to the kind of experiment: Cell viability assay (CellTiter-Glo), Jurkat. The data set is classed as cell-based. The conditions noted are these: Homo sapiens, 48 h treatment, CellTiter-Glo. The protocol:
(§1) The cell lines Jurkat (TIB-152), El4 (TIB-39), Daudi (ccl-213), RS4:11 (crl-1873), A549 (ccl-185), HepG2 (hb-8065) and PANC-1 (crl-1469) were purchased from ATCC (American Type Culture Collection), and MGC-803 (C6582) was purchased from Beyotime (https://www.beyotime.com/product/C6582.htm). […] Daudi and RS4:11 cells were cultured in RPMI-1640 medium (HyClone, SH30809.01) and 10% FBS (Gibco, 10099-141), whereas HepG2, MGC-803 and PANC-1 cells were cultured in MDEM (HyClone, SH30243.01). Cells were maintained at 37 °C under a humidified, 5% (v/v) CO2-containing atmosphere.
(§2) Cell viability was measured using CellTiter-Glo® 2.0 Reagent (Promega, G9242). […] After different inhibitors were added into serum-free medium and cultured for 4 h (RS4:11 for 6 h), FBS were supplemented to 10% and then incubated totally for 24 h or 48 h. Finally, the IC50 values were calculated based on measurements using a microplate reader (Thermo, Varioskan LUX). Statistical analysis was performed using software GraphPad Prism 7.0.
A general note: In ATP-based viability assays light output follows the ATP content of the culture.

Data set [2] concerns Daudi cells. Description: Cell viability assay (CellTiter-Glo), Daudi. The data set is classed as cell-based. Conditions: Homo sapiens, Daudi, 48 h, 48 h treatment, CellTiter-Glo. The method, then: as §1, §2
Data set [3] deals with El4 cells. Description: Cell viability assay (CellTiter-Glo), El4. The data set is classed as cell-based. Conditions: Mus musculus, 48 h treatment, NO = no inhibition detected. The protocol: as §1, §2
The test system of data set [4] is RS4:11 cells. Description: Cell viability assay (CellTiter-Glo), RS4:11. The data set is classed as cell-based. The conditions noted are these: Homo sapiens, RS4-11; 48 h treatment, CellTiter-Glo; small-molecule inhibitors, cells marked (nM). In outline:
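Compounds added in serum-free medium for 4 h (RS4:11: 6 h), then FBS brought to 10% and incubation continued to 24 h or 48 h total at 37 °C, 5% CO2. Viability by CellTiter-Glo 2.0 luminescence; IC50 calculated.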

On the set-up of data set [5]: method as in PMID 23410971. Conditions: attributed to binding to BCL-XL; cited from earlier work.
For data set [6], the target named is T1, BCL-XL (Homo sapiens, UniProt Q07817, DEL27-81).
T1 construct: human BCL-XL (residues 1–210, with 27–81 and 210–233 removed); vector-borne tag of pET-22b (Ni-NTA purification implies a His tag); made in house; host or cells: E. coli BL21 (DE3)
Description: SPR binding assay, BCL-XL. The conditions noted are these: affinity fitting, mean ± SD of three independent experiments, 25 °C. The text has this:
(§3) The DNA fragments encoding human BCL-XL ([…], with […] removed), BCL-w (residues 6–152), MCL-1 (residues 152–308) and BFL-1 (residues 1–151) as previously reported[18] were cloned into a pET-22b vector (Invitrogen), respectively. A chimeric human BCL-2 (including residues 1–50 and 92–207) was constructed, by removing the internal long loop (residues 51–91) and replacing its residues 35–50 with residues 33–48 of BCL-XL to solubilize the protein[14], and then it was cloned into a pET28a-Sumo vector (Invitrogen). All BCL-2 mutants (G101V, F104L, Y103D, D111A) were generated by mutagenic PCR, according to the QuikChange (Stratagene) protocol.
(§4) SPR assays were performed using a Biacore T200 instrument in running buffer consisting 10 mM PBS, 50 μM EDTA and 0.05% Tween-20 at 25 °C. Biotinylated proteins were immobilized on a CAP sensor chip (Cytiva, 28920234). […] The binding affinities were quantified by the Biacore evaluation software using 1:1 binding model. The reproducibility of the assays was confirmed by performing replicate determinations.
(Surface plasmon resonance follows binding to a sensor surface in real time, without labels.)

Data set [7] deals with T2, BCL-2-D111A (Homo sapiens, UniProt P10415, D111A/DEL35-91/INS34DVEENRTEAPEGTESE).
T2 construct: A chimeric human BCL-2 (including residues 1–50 and 92–207) was constructed; SUMO (pET28a-Sumo vector); made in house; host or cells: E. coli BL21 (DE3)
As to the kind of experiment: SPR binding assay, BCL-2 D111A mutant.

Data set [8] deals with T3, BCL-2-G101V (Homo sapiens, UniProt P10415, DEL35-91/G101V/INS34DVEENRTEAPEGTESE).
T3 construct: A chimeric human BCL-2 (including residues 1–50 and 92–207) was constructed; SUMO (pET28a-Sumo vector); made in house; host or cells: E. coli BL21 (DE3)
As to the kind of experiment: SPR binding assay, BCL-2 G101V mutant. Conditions: affinity fitting, mean ± SD of three independent experiments.
Source text: as §3, §4

Data set [9] deals with T4, BCL-2-D103Y (Homo sapiens, UniProt P10415, D103Y/DEL35-91/INS34DVEENRTEAPEGTESE).
T4 construct: A chimeric human BCL-2 (including residues 1–50 and 92–207) was constructed; SUMO (pET28a-Sumo vector); made in house; host or cells: E. coli BL21 (DE3)
Description: SPR binding assay, BCL-2 D103Y mutant. The conditions noted are these: affinity fitting, mean ± SD of three independent experiments.
Source text: as §3, §4

The target of data set [10] is T5, BCL-2-F104L (Homo sapiens, UniProt P10415, DEL35-91/F104L/INS34DVEENRTEAPEGTESE).
T5 construct: A chimeric human BCL-2 (including residues 1–50 and 92–207) was constructed; SUMO (pET28a-Sumo vector); made in house; host or cells: E. coli BL21 (DE3)
Description: SPR binding assay, BCL-2 F104L mutant. Conditions: affinity fitting, mean ± SD of three independent experiments.
Source text: as §3, §4

The target in data set [11] is T6, BCL-w (Homo sapiens, UniProt Q92843).
T6 construct: BCL-w (residues 6–152); vector-borne tag of pET-22b (Ni-NTA purification implies a His tag); made in house; host or cells: E. coli BL21 (DE3)
As to the kind of experiment: SPR binding assay, BCL-w. Conditions: affinity fitting, mean ± SD of three independent experiments.
Source text: as §3, §4

Data set [12] concerns the target MCL-1 (Homo sapiens, UniProt Q07820). As to the kind of experiment: SPR binding assay, MCL-1. The conditions noted are these: NB = no binding.
Source text: as §3, §4

In data set [13] the target is T7, BFL-1 (Homo sapiens, UniProt Q16548).
T7 construct: BFL-1 (residues 1–151); vector-borne tag of pET-22b (Ni-NTA purification implies a His tag); made in house; host or cells: E. coli BL21 (DE3)
T7 sequence (Q16548 1-151): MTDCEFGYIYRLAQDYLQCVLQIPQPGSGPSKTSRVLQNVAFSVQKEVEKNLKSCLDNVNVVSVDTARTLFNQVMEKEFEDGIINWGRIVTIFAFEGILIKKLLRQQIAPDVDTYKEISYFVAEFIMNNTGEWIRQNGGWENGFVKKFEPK
Description: SPR binding assay, BFL-1. Conditions: NB = no binding.
Source text: as §3, §4

Starred links: 1 amine or outer side, 2 acyl side, 3 side chain; linkers in the order of their positions; H or OH if unused. Positions of bridges follow the written chain, without caps; N, C: chain ends. Residues, ends and D or L forms follow the SMILES beside them. X1 = O=C(C[*:2])NCCNC(=O)c1ccc(C2=N[C@H](C(=O)[*:1])CS2)cc1 Bounds are passed on as bounds.

T6 sequence (Q92843 6-152): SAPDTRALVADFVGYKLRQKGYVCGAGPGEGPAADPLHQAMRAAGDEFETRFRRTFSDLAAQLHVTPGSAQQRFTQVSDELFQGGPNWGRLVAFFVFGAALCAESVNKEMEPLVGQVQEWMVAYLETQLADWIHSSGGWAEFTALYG
MCL-1, sequence (Q07820 152-308): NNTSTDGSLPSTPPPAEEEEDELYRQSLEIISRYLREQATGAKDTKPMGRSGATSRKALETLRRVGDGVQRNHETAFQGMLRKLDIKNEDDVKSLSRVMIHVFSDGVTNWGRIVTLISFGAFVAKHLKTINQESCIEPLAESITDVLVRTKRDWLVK

Usually IC50 stands for the concentration that gives 50% inhibition. In the case of `CC1(C)CCC(c2ccc(Cl)cc2)=C(CN2CCN(c3ccc(C(=O)NS(=O)(=O)c4ccc(N[C@H](CCN5CCOCC5)CSc5ccccc5)c(S(=O)(=O)C(F)(F)F)c4)cc3)CC2)C1` [ABT-263, navitoclax], the IC50 was 8.5 ± 0.5 µM in data set [1], 13.5 ± 1.5 µM in [2], over 100 µM in data set [3] and 0.4 ± 0.1 nM in data set [4]. Further, the Thrombocytopenia result in [5] is reported as “dose-dependent thrombocytopenia”.

What is called Kd is a measure of binding affinity in units of concentration. Read a high Kd as lower affinity. As to `C[C@@H]1NC(=O)[C@@H]2CCCN2C(=O)[C@@H]2CSC(=N2)c2ccc(cc2)C(=O)NCCNC(=O)CSC[C@@H](C(N)=O)NC(=O)[C@H](CCC(=O)O)NC(=O)[C@H](Cc2ccc(O)cc2)NC(=O)[C@H](CC(=O)O)NC(=O)[C@H](Cc2c[nH]c3ccccc23)NC(=O)CNC(=O)[C@H](Cc2ccc(O)cc2)NC(=O)[C@H](CCCNC(=N)N)NC1=O` [cp1] (PARYGWDYEC-NH2; linker N-10 via X1), the Kd is over 12.1 µM in data set [6]; 5.34 ± 1 µM in data set [7]; 1 ± 0.13 µM in data set [8]; 0.36 ± 0.03 µM in data set [9]; 1.62 ± 0.36 µM in [10]; 1.98 ± 0.39 µM in data set [11]. In addition, the Kd in [12] and in data set [13] was over 12.8 µM throughout.
